Converted amounts (≈) assume the structure as drawn. Like-named read-outs stand apart in the source and are kept apart here.
Columns and labels:
[1] = test system: Pseudomonas fluorescens; assay: MIC, broth two-fold serial dilution test, Psfl; format: cell-based; conditions: read-out: Minimum Inhibitory Concentration (MIC)
Protocol: (§1) A minimum inhibitory concentration (MIC) value is obtained using a broth, two-fold serial dilution test performed as follows: […] A volume of the stock solution is dispensed into culture media to give an initial starting test concentration of 500 ppm compound. The test is carried out by adding and equal volume of broth to each vessel in the dilution series, except for the first vessel. The first vessel contains twice the volume of broth plus the initial concentration of test compound. One half of the broth from the first vessel is transferred to the second vessel. After being mixed, one half the resulting volume is removed from the second vessel and transferred to the third vessel. The entire cycle is repeated sufficiently to give a series of concentrations amounting to 500, 250, 125, 63, 31, 16, 8, and 4 ppm (or 100, 50, 25, 12.5, 6.2, 3.1, 1.6, and 0.8), respectively. Each vessel is then inoculated with a cell suspension of the appropriate test organism. Bacteria are grown in both and fungi on agar slats for a time and at a temperature appropriate to the species being tested. At the end of the growth period, the broth is vortexed to disperse the cells. In the case of fungi, the pores are harvested by pipetting water onto the slant and dislodging the spores with a sterile loop. The cell/spore suspension is standardized by controlling incubation time, temperature, and the volume of the diluent. The suspension is then used to inoculate the vessels containing the broth compound. The vessels are then incubated at the appropriate temperature. After the incubation, the vessels are examined for growth/no growth. The minimum inhibitory concentration (MIC) is defined as the lowest concentration of compound that results in complete inhibition of growth of the test organism.

[2] = test system: Pseudomonas aerugenosa; assay: MIC, broth two-fold serial dilution test, Psae; format: cell-based; conditions: read-out: Minimum Inhibitory Concentration (MIC)
Protocol: as §1

[3] = test system: Escherichia coli; assay: MIC, broth two-fold serial dilution test, Ecol; format: cell-based; conditions: read-out: Minimum Inhibitory Concentration (MIC)
Protocol: as §1

[4] = test system: Staphylococcus aureus; assay: MIC, broth two-fold serial dilution test, Saur; format: cell-based; conditions: read-out: Minimum Inhibitory Concentration (MIC)
Protocol: as §1

[5] = test system: Aspergillus niger; assay: MIC, broth two-fold serial dilution test, Anig; format: cell-based; conditions: read-out: Minimum Inhibitory Concentration (MIC)
Protocol: as §1

[6] = test system: Aureobasidium pullulans; assay: MIC, broth two-fold serial dilution test, Apul; format: cell-based; conditions: read-out: Minimum Inhibitory Concentration (MIC)
Protocol: as §1

[7] = test system: Cochliobolus sativus; assay: In-vitro plant fungicide test, HEL; format: cell-based; conditions: Bipolaris sorokiniana, read-out: % Control; for inhibition of growth at 50 ppm: rate 50 PPM; for inhibition of growth at 25 ppm: rate 25 PPM
[8] = test system: Phytophthora capsici; assay: In-vitro plant fungicide test, PHY; format: cell-based; conditions: read-out: % Control; for inhibition of growth at 50 ppm: rate 50 PPM; for inhibition of growth at 25 ppm: rate 25 PPM
[9] = test system: Piricularia oryzae; assay: microbe, parasite or virus in culture; format: cell-based; conditions: read-out: % Control
[10] = test system: Pythium ultimum; assay: In-vitro plant fungicide test, PYU; format: cell-based; conditions: Globisporangium ultimum, read-out: % Control; for inhibition of growth at 50 ppm: rate 50 PPM; for inhibition of growth at 25 ppm: rate 25 PPM
[11] = test system: Rhizoctonia solani; assay: In-vitro plant fungicide test, RHI; format: cell-based; conditions: read-out: % Control; for inhibition of growth at 50 ppm: rate 50 PPM; for inhibition of growth at 25 ppm: rate 25 PPM
[12] = test system: Septoria nodorum; assay: In-vitro plant fungicide test, SEP; format: cell-based; conditions: Parastagonospora nodorum, read-out: % Control; for inhibition of growth at 50 ppm: rate 50 PPM; for inhibition of growth at 25 ppm: rate 25 PPM
[13] = test system: Xanthomonas campestris; assay: In-vitro plant fungicide test, XAN; format: cell-based; conditions: read-out: % Control; for inhibition of growth at 50 ppm: rate 50 PPM
[14] = test system: Pseudoperonospora cubensis; assay: whole plant or invertebrate; format: in vivo; conditions: in Cucumis sativus, 168 h
[15] = test system: Piricularia oryzae; assay: whole plant or invertebrate; format: in vivo; conditions: Pyricularia oryzae, 192 h, read-out: % Control
[16] = test system: Septoria glume blotch of wheat; assay: whole plant or invertebrate; format: in vivo; conditions: Triticum aestivum
[17] = test system: Phytophthora infestans; assay: whole plant or invertebrate; format: in vivo; conditions: in Solanum lycopersicum, 96 h, read-out: % Control
[18] = test system: Puccinia recondita (f. sp. tritici Races PKB and PLD); assay: whole plant or invertebrate; format: in vivo; conditions: 240 h
[19] = test system: Erysiphe graminis (f. sp. tritici); assay: whole plant or invertebrate; format: in vivo; conditions: Blumeria graminis
[20] = test system: Botrytis cinerea; assay: In-vitro plant fungicide test, BOC; conditions: read-out: % Control
[21] = test system: Fusarium roseum; assay: microbe, parasite or virus in culture; conditions: Fusarium sambucinum, read-out: % Control

| SMILES | MIC [1] [µg/mL] | MIC [2] [µg/mL] | MIC [3] [µg/mL] | MIC [4] [µg/mL] | MIC [5] [µg/mL] | MIC [6] [µg/mL] | pest or weed control at 200 ppm [14] [%] | pest or weed control at 200 ppm [15] [%] | pest or weed control at 200 ppm [16] [%] | pest or weed control at 200 ppm [17] [%] | pest or weed control at 200 ppm [18] [%] | pest or weed control at 200 ppm [19] [%] | inhibition of growth at 25 ppm [7] [%] | inhibition of growth at 25 ppm [8] [%] | inhibition of growth at 25 ppm [9] [%] | inhibition of growth at 25 ppm [10] [%] | inhibition of growth at 25 ppm [11] [%] | inhibition of growth at 25 ppm [12] [%] | inhibition of growth at 25 ppm [20] [%] | inhibition of growth at 25 ppm [21] [%] | also measured |
| --- | --- | --- | --- | --- | --- | --- | --- | --- | --- | --- | --- | --- | --- | --- | --- | --- | --- | --- | --- | --- | --- |
| COC(=O)N(CC#CI)N=Cc1ccc(F)cc1 [Compound 10, N'-Methoxycarbonyl-N'-3-iodopropargyl 4-fluorobenzaldehyde hydrazone] | > 500 | > 500 | > 500 | < 4 | < 4 | < 4 | 50 | 50 | 0 | 0 | 0 | 50 |  |  |  |  |  |  |  |  | inhibition of growth at 50 ppm [7]: 100%; inhibition of growth at 50 ppm [8]: 100%; inhibition of growth at 50 ppm [9]: 100%; inhibition of growth at 50 ppm [10]: 100%; inhibition of growth at 50 ppm [11]: 100%; inhibition of growth at 50 ppm [12]: 100%; inhibition of growth at 50 ppm ([13]; XAN): 0%; inhibition of growth at 50 ppm [20]: 0%; inhibition of growth at 50 ppm [21]: 100% |
| COC(=O)N(CC#CI)N=Cc1cc(Cl)cc(Cl)c1 [Compound 15, N'-Methoxycarbonyl-N'-3-iodopropargyl 3,5-dichlorobenzaldehyde hydrazone] | > 100 | > 100 | > 100 | > 100 | > 100 | > 100 | 0 | 0 | 0 | 0 | 0 | 0 | 50 | 0 | 100 | 0 | 75 | 0 | 0 | 75 | inhibition of growth at 25 ppm ([13]; XAN, rate 25 PPM): 0% |
| COC(=O)N(CC#CBr)N=Cc1cc(Cl)cc(Cl)c1 [Compound 16, N'-Methoxycarbonyl-N'-3-bromopropargyl 3,5-dichlorobenzaldehyde hydrazone] | > 100 | > 100 | > 100 | > 100 | > 100 | > 100 | 0 | 0 | 0 | 0 | 0 | 0 | 0 | 0 | 0 | 0 | 0 | 0 | 0 | 0 | inhibition of growth at 25 ppm ([13]; XAN, rate 25 PPM): 0% |
| COC(=O)N(CC#CBr)N=Cc1ccc(F)cc1 [Compound 7, N'-Methoxycarbonyl-N'-3-bromopropargyl 4-fluorobenzaldehyde hydrazone] | 125 (≈ 399 µM) | 31 (≈ 99 µM) | 125 (≈ 399 µM) | 63 (≈ 201 µM) | 31 (≈ 99 µM) | 31 (≈ 99 µM) | 0 | 0 | 0 | 0 | 0 | 0 | 0 | 0 | 0 | 0 | 0 | 100 | 0 | 0 | inhibition of growth at 50 ppm [7]: 0%; inhibition of growth at 50 ppm [8]: 90%; inhibition of growth at 50 ppm [9]: 90%; inhibition of growth at 50 ppm [10]: 100%; inhibition of growth at 50 ppm [11]: 0%; inhibition of growth at 50 ppm [12]: 0%; inhibition of growth at 50 ppm ([13]; XAN): 0%; inhibition of growth at 25 ppm [13]: 0%; inhibition of growth at 50 ppm [20]: 0%; inhibition of growth at 50 ppm [21]: 0% |
| CCOC(=O)N(CC#CBr)N=Cc1ccc(Cl)c(Cl)c1 [Compound 14, N'-Ethoxycarbonyl-N'-3-bromopropargyl 3,4-dichlorobenzaldehyde hydrazone] | > 100 | > 100 | > 100 | > 100 | > 100 | > 100 | 0 | 0 | 0 | 0 | 0 | 85 | 0 | 0 | 0 | 0 | 50 | 0 | 0 | 0 | inhibition of growth at 25 ppm ([13]; XAN, rate 25 PPM): 0% |
| CCOC(=O)N(CC#CI)N=Cc1ccc(Cl)c(Cl)c1 [Compound 13, N'-Ethoxycarbonyl-N'-3-iodopropargyl 3,4-dichlorobenzaldehyde hydrazone] | > 100 | > 100 | > 100 | > 100 | 100 (≈ 235 µM) | > 100 | 85 | 0 | 0 | 0 | 50 | 50 | 50 | 0 | 100 | 0 | 90 | 50 | 0 | 75 | inhibition of growth at 25 ppm ([13]; XAN, rate 25 PPM): 0% |

Reference: US5112382A, “Halopropargyl compounds, compositions, uses and processes of preparation” (Rohm and Haas Company, priority 1990, dated 1992)
